# Measured values published in patent US6465499B1 (priority 1996, dated 2002).
# What was measured:
# [1] = tested on: Phytophthora infestans; type: in vivo; conditions: tomato young plants, protective spray, rate of application 100 g/ha, evaluated 3 days after inoculation; 0% = as control, 100% = no disease
smiles,measurement,setting,value
Cc1noc(C)c1S(=O)(=O)n1c(=O)sc2c(C(F)(F)F)cc([N+](=O)[O-])cc21 [Example 6],Efficacy in %,[1],93%
same,melting point,,210 to 213 °C
Cc1noc(C)c1S(=O)(=O)n1c(=O)oc2ccc(Cl)cc21 [Example 4],Efficacy in %,[1],86%
same,melting point,,183 to 187 °C
Cc1noc(C)c1S(=O)(=O)n1c(=O)sc2c(C(F)(F)F)cc(C(F)(F)F)cc21 [Example 7],Efficacy in %,[1],93%
same,melting point,,152 to 156 °C
Cc1noc(C)c1S(=O)(=O)n1c(=O)oc2c(Cl)cc(Cl)cc21 [Example 3],Efficacy in %,[1],93%
same,melting point,,164 to 166 °C
Cc1noc(C)c1S(=O)(=O)n1c(=O)sc2c([N+](=O)[O-])cc(C(F)(F)F)cc21 [Example 5],Efficacy in %,[1],100%
same,melting point,,129 to 133 °C
